Assays:
[1] = target: Procathepsin L (Homo sapiens, UniProt P07711); assay: Inhibition of cathepsin L assessed as inhibition of fluorogenic substrate cleavage
[2] = target: T1, Cathepsin L2 (Homo sapiens, UniProt O60911); assay: Inhibition of cathepsin L2 assessed as inhibition of fluorogenic substrate cleavage
T1 sequence (O60911 whole entry): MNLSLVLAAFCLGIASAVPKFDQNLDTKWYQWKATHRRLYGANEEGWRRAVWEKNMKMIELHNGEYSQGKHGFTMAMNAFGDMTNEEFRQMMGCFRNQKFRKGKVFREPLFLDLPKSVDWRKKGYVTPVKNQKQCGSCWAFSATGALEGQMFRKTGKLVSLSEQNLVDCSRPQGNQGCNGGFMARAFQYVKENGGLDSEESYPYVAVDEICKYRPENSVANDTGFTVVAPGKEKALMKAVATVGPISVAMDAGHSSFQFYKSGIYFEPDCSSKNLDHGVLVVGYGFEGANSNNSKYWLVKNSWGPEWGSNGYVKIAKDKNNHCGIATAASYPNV

[3] = target: Cathepsin B (Homo sapiens, UniProt P07858); assay: Inhibition of human liver cathepsin B assessed as inhibition of fluorogenic substrate cleavage
[4] = target: T2, Cathepsin K (Homo sapiens, UniProt P43235); assay: Inhibition of cathepsin K assessed as inhibition of fluorogenic substrate cleavage
T2 sequence (P43235 whole entry): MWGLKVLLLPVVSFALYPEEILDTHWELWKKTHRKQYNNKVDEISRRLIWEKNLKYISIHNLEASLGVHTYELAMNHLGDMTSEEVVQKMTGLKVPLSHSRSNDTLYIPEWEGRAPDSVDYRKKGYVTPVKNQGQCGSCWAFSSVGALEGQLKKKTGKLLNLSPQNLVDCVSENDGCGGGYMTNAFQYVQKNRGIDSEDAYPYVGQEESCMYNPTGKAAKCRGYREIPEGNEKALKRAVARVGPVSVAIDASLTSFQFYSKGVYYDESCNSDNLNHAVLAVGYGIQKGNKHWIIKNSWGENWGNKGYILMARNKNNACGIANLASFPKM

[5] = target: Cathepsin S (Homo sapiens, UniProt P25774); assay: Inhibition of cathepsin S assessed as inhibition of fluorogenic substrate cleavage
Cathepsin S, sequence (P25774 whole entry): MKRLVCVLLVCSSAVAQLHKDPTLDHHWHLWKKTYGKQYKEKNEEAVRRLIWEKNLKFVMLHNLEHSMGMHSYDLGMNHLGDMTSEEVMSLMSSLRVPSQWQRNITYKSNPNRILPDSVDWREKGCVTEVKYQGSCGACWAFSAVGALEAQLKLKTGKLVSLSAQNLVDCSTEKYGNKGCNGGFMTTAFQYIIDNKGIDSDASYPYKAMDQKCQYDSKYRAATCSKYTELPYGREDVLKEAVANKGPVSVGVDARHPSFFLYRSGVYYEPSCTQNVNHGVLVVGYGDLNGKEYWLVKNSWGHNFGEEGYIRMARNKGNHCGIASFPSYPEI

Procathepsin L, sequence (P07711 whole entry): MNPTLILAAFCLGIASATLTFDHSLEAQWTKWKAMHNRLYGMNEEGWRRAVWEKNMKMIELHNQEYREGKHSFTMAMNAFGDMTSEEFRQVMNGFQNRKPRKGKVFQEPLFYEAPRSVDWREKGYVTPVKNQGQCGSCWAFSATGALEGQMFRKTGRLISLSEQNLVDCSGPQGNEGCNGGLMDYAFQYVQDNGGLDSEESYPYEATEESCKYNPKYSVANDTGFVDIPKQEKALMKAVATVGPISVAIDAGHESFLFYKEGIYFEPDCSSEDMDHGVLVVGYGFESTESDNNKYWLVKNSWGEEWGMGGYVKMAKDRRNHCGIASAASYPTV

SMILES	IC50 [1] [µM]	IC50 [2] [µM]	IC50 [3] [µM]	IC50 [4] [µM]	IC50 [5] [µM]
Cn1nc(C(C)(C)C)cc1C(=O)N[C@@H](Cc1cccc(-c2nncs2)c1)C(=O)NCC#N	0.00501	0.00631	> 10	0.126	0.0158
Cn1nc(C(C)(C)C)cc1C(=O)N[C@@H](Cc1cccc(-c2nnc(CO)o2)c1)C(=O)NCC#N	0.00631	0.00794	> 10	0.1	0.0631
N#CCNC(=O)[C@H](Cc1cccc(Cl)c1)NC(=O)c1ccccc1	0.251	0.794	5.01	3.16	0.126
Cc1nnc(-c2cccc(C[C@H](NC(=O)c3cc(C(C)(C)C)nn3C)C(=O)NCC#N)c2)o1	0.00501	0.00631	> 10	0.0631	0.0794
COCc1nnc(-c2cccc(C[C@H](NC(=O)c3cc(C(C)(C)C)nn3C)C(=O)NCC#N)c2)o1	0.00398	0.002	> 10	0.126	0.0794
Cn1nc(C(C)(C)C)cc1C(=O)N[C@@H](Cc1cccc(-c2nnc(CCN)o2)c1)C(=O)NCC#N	0.00126	0.1	6.31	0.158	0.0631
N#CCNC(=O)[C@H](Cc1cccc(-c2ccccn2)c1)NC(=O)c1ccccc1	3.16	> 10	6.31	> 10	0.631
Cn1nc(C(C)(C)C)cc1C(=O)N[C@@H](Cc1cccc(-c2nnc(CN)o2)c1)C(=O)NCC#N	0.002	0.0398	3.98	1	0.2
Cn1nccc1-c1cccc(C[C@H](NC(=O)c2ccccc2)C(=O)NCC#N)c1	3.16	3.16	7.94	> 10	0.316
Cc1nnc(-c2cccc(C[C@H](NC(=O)c3cc(C(C)(C)C)nn3C)C(=O)NCC#N)c2)s1	0.126	0.00316	> 10	3.16	0.316
Cn1nc(C(C)(C)C)cc1C(=O)N[C@@H](Cc1cccc(-c2nnco2)c1)C(=O)NCC#N	0.0158	0.02	> 10	0.126	0.0631
Cn1cc(-c2cccc(C[C@H](NC(=O)c3cc(C(C)(C)C)nn3C)C(=O)NCC#N)c2)cn1	0.0158	0.158	> 10	6.31	0.316
Cn1nc(C(C)(C)C)cc1C(=O)N[C@@H](Cc1cccc(Cl)c1)C(=O)NCC#N	0.0126	0.2	6.31	3.16	1
N#CCNC(=O)[C@H](Cc1cccc(-c2nnco2)c1)NC(=O)c1ccccc1	0.501	0.158	> 10	1.26	0.02
Cc1cccc(C[C@H](NC(=O)c2cc(C(C)(C)C)nn2C)C(=O)NCC#N)c1	–	0.398	3.98	2.51	0.794

Continued, values first:

IC50 [1] [µM]	IC50 [2] [µM]	IC50 [3] [µM]	IC50 [4] [µM]	IC50 [5] [µM]	SMILES
2	3.98	7.94	> 7.94	0.126	N#CCNC(=O)[C@H](Cc1cccc(-c2cccnc2)c1)NC(=O)c1ccccc1
3.98	> 7.94	> 10	> 7.94	0.316	N#CCNC(=O)[C@H](Cc1cccc(-c2cncnc2)c1)NC(=O)c1ccccc1
1.26	0.0631	6.31	> 6.31	0.00794	N#CCNC(=O)[C@H](Cc1cccc(-c2cccnn2)c1)NC(=O)c1ccccc1
1.58	3.16	> 10	> 10	0.251	N#CCNC(=O)[C@H](Cc1cccc(-c2ccncc2)c1)NC(=O)c1ccccc1
0.2	0.0251	> 10	0.631	0.00251	N#CCNC(=O)[C@H](Cc1cccc(-c2nncs2)c1)NC(=O)c1ccccc1
0.501	1.58	6.31	> 10	0.1	Cn1cc(-c2cccc(C[C@H](NC(=O)c3ccccc3)C(=O)NCC#N)c2)cn1
0.794	1.58	7.94	> 10	0.0794	N#CCNC(=O)[C@H](Cc1cccc(-c2cn[nH]c2)c1)NC(=O)c1ccccc1
1.58	3.98	5.01	> 10	0.316	N#CCNC(=O)[C@H](Cc1cccc(-c2ccn[nH]2)c1)NC(=O)c1ccccc1
> 7.94	> 10	> 10	> 10	0.794	N#CCNC(=O)[C@H](Cc1cccc(-c2ccnnc2)c1)NC(=O)c1ccccc1
